The source of these data is US12370167B2, “Blood-brain barrier permeability regulator and use thereof” (ZHEJIANG UNIVERSITY, priority 2019, dated 2025).

Series [1] deals with VEGF mRNA in U87 MG cells. Description: Down-regulation of tumor cell VEGF mRNA expression, qt-PCR. Type of series: cell-based. To be noted: paclitaxel 0.5 μg/mL, siRNA 100 nM, 48 hours, ΔΔCt method, n=3. As to the method: FIG. 2: In vitro down-regulation of expression of U87 MG cell VEGF mRNA by the Angiopep-2-modified glycolipid nano-delivery system. 2 mL suspensions of well-grown U87 MG glioma cells were inoculated into a 6-well plate at a density of 4×10^5/well. After adherent growth of the cells, an Angiopep-2-modified glycolipid nano-delivery system was added, with paclitaxel at a concentration of 0.5 μg/mL and the siRNA at a concentration of 100 nM. The incubation was carried out for 48 hours. An untreated group was used as the blank control. The RNA in the cells was extracted with TRIzol. The relative expression level of tumor cell VEGF mRNA was measure with qt-PCR and calculated with a ΔΔCt method (n=3).
The Angiopep-2-modified glycolipid nano-delivery system was obtained according to the procedures as described in the above sections of 1 and 2. 2.0 mL suspensions of well-grown U87 MG cells were inoculated into a 6-well plate at a density of 4×10^5/well, and were incubated at 37° C. and 5% CO2 until the cells adhere. The Angiopep-2-modified glycolipid nano-delivery system was added, with paclitaxel at a concentration of 0.5 μg/mL and the siRNA at a concentration of 100 nM. The incubation was carried out for 48 hours. The untreated cells were used as a blank control. Each of the group was repeated 3 times. The tumor cell VEGF expression level was measured with qt-PCR.

Another series concerns U87 MG glioma cells. Put plainly: Cytotoxicity on U87 MG glioma cells, tetrazolium blue colorimetric method. Type of series: cell-based. As to conditions: paclitaxel 0.5 μg/mL, siRNA 100 nM, 48 hours. The protocol: FIG. 1: In vitro cell inhibition rate against U87 MG glioma cells of the Angiopep-2-modified glycolipid nano-delivery system. 200 μL suspensions of well-grown U87 MG glioma cells were inoculated into a 96-well plate at a density of 5×10^3/well. After adherent growth of the cells, an Angiopep-2-modified glycolipid nano-delivery system was added, with paclitaxel at a concentration of 0.5 μg/mL and the siRNA at a concentration of 100 nM. The untreated cells were used as a blank control. The cell growth inhibition rate was measure with a tetrazolium blue colorimetric method (n=3).
U87 MG glioma cells were used as the model cell to assess the growth inhibitory effect of the Angiopep-2-modified glycolipid nano-delivery system on tumor cells with a tetrazolium blue colorimetric method. The Angiopep-2-modified glycolipid nano-delivery system was obtained according to the procedures as described in the above sections of 1 and 2. 200 μL suspensions of well-grown U87 MG cells were inoculated into a 96-well plate at a density of 5×10^3/well, and were incubated at 37° C. and 5% CO2 until the cells adhere. The Angiopep-2-modified glycolipid nano-delivery system was added, with paclitaxel at a concentration of […] and the siRNA at a concentration of 100 nM. The untreated cells were used as a blank control. […] Absorbance at 570 nm was measured with a microplate reader. […]

As for `CC(=O)O[C@H]1C(=O)[C@@]2(C)[C@H]([C@H](OC(=O)c3ccccc3)[C@]3(O)C[C@H](OC(=O)[C@H](O)[C@@H](NC(=O)c4ccccc4)c4ccccc4)C(C)=C1C3(C)C)[C@]1(OC(C)=O)CO[C@@H]1C[C@@H]2O` [paclitaxel], in series [1], the “expression level of VEGF mRNA (relative)” value was 78.5%. Also, in the series on U87 MG glioma cells (Homo sapiens, U-87 MG, n=3, read-out: cell inhibition rate), the inhibition at 0.5 µg/mL came to 18.7 ± 5.4%.

For the compound “siRNA: siRNA, sense strand 5′-GUCUAUCAGCGCAGCUACUTT-3′ (SEQ ID NO: 1), antisense strand 5′-AGUAGCUGCGCUGAUAGACTT-3′ (SEQ ID NO: 2) (sense GUCUAUCAGCGCAGCUACUNN; antisense AGUAGCUGCGCUGAUAGACNN; listed as RNA, chemistry not given here)”, in series [1], the “expression level of VEGF mRNA (relative)” value worked out at 92.9%. For the same compound, the cell inhibition rate with U87 MG glioma cells (n=3) is reported as 5.5±0.5%.

What is called inhibition is the change of the read-out against control, counted positive when it falls.
